Series [1] relates to Mycobacterium tuberculosis. The series can be described thus: Antitubercular activity against Mycobacterium tuberculosis H37Rv ATCC 27294 after 28 days by agar dilution method. As to conditions: H37Rv ATCC 27294, 672 h. It counts as functional. For orientation: In agar dilution, organisms are placed on agar that contains the substance at set levels.
The nature of series [2]: Cytotoxicity against mouse NIH/3T3 cells assessed as growth inhibition at 50 ug/ml after 48 hrs by MTT assay relative to control. It counts as cell-based, NIH3T3. As to conditions: read-out: GI.

Converted amounts (≈) assume the structure as drawn.

A word on the MIC: it is the lowest concentration found to suppress growth. Lower therefore signals greater potency. In series [1], `COc1ccc(-c2nc3sc(C)nn3c2COCc2cn(Cc3ccccc3F)nn2)cc1` showed a minimum inhibitory concentration (MIC) of 25 mg/L (≈ 53.8 µM).

`CCOC(=O)Cn1cc(COCc2c(-c3ccc(OC)cc3)nc3sc(C)nn23)nn1` gave a minimum inhibitory concentration (MIC) in series [1] of 50 mg/L (≈ 113 µM).

`CCn1cc(COCc2c(-c3ccc(OC)cc3)nc3sc(C)nn23)nn1`: in series [1], 25 mg/L (≈ 65 µM) was the least that counted as inhibitory (MIC).

Regarding `COc1ccc(-c2nc3sc(C)nn3c2COCc2cn(CC#N)nn2)cc1`, inhibition of growth in series [1] (MIC) required 50 mg/L (≈ 126 µM).

For the compound `COc1ccc(-c2nc3sc(C)nn3c2COCc2cn(Cc3ccc(F)cc3)nn2)cc1`, the inhibition at 48 h, 50 ug/ml in series [2] came to 19.1%. This compound also registered an MIC in series [1] of 12.5 mg/L (≈ 26.9 µM).

`COc1ccc(-c2nc3sc(C)nn3c2COCc2cn(Cc3ccccc3)nn2)cc1`: the inhibition at 48 h, 50 ug/ml in series [2] was 22.7%. Besides, it took 3.12 mg/L (≈ 7 µM) to inhibit growth in series [1] (MIC).

Compound `CCOC(=O)Cn1cc(COCc2c(-c3ccc(C)cc3)nc3sc(C)nn23)nn1` had an MIC in series [1] of 50 mg/L (≈ 117 µM).

Consider `CCn1cc(COCc2c(-c3ccc(C)cc3)nc3sc(C)nn23)nn1`, for which it took 25 mg/L (≈ 67.8 µM) to inhibit growth in series [1] (MIC).

`Cc1ccc(-c2nc3sc(C)nn3c2COCc2cn(CC#N)nn2)cc1` gave an MIC in series [1] of 25 mg/L (≈ 65.9 µM).

Take `Cc1ccc(-c2nc3sc(C)nn3c2COCc2cn(Cc3ccccc3F)nn2)cc1`: the MIC in series [1] was 50 mg/L (≈ 111 µM).

Compound `Cc1ccc(-c2nc3sc(C)nn3c2COCc2cn(Cc3ccc(F)cc3)nn2)cc1` gave an MIC in series [1] of 50 mg/L (≈ 111 µM).

Compound `Cc1ccc(-c2nc3sc(C)nn3c2COCc2cn(Cc3ccccc3)nn2)cc1` gave an MIC in series [1] of 25 mg/L (≈ 58.1 µM).

For the compound `CCOC(=O)Cn1cc(COCc2c(-c3ccc(Cl)cc3)nc3sc(C)nn23)nn1`, in series [2], the inhibition at 48 h, 50 ug/ml came to 28.2%. This compound returned an MIC in series [1] of 12.5 mg/L (≈ 28 µM).

For the compound `CCn1cc(COCc2c(-c3ccc(Cl)cc3)nc3sc(C)nn23)nn1`, the inhibition at 48 h, 50 ug/ml in series [2] is 20.1%. The compound further showed an MIC in series [1] of 3.12 mg/L (≈ 8.04 µM).

The compound `Cc1nn2c(COCc3cn(C(C)C)nn3)c(-c3ccc(Cl)cc3)nc2s1` registered an MIC in series [1] of 50 mg/L (≈ 124 µM).

Regarding `Cc1nn2c(COCc3cn(CC#N)nn3)c(-c3ccc(Cl)cc3)nc2s1`, in series [2], the inhibition at 48 h, 50 ug/ml amounted to 27.3%. The same compound gave an MIC in series [1] of 6.25 mg/L (≈ 15.6 µM).

For the compound `Cc1nn2c(COCc3cn(Cc4ccccc4F)nn3)c(-c3ccc(Cl)cc3)nc2s1`, in series [1], the lowest concentration to inhibit growth (MIC) was 50 mg/L (≈ 107 µM).

`Cc1nn2c(COCc3cn(Cc4ccc(F)cc4)nn3)c(-c3ccc(Cl)cc3)nc2s1` came in with an MIC in series [1] of 25 mg/L (≈ 53.3 µM).

Compound `Cc1nn2c(COCc3cn(Cc4ccccc4)nn3)c(-c3ccc(Cl)cc3)nc2s1` yielded an MIC in series [1] of 25 mg/L (≈ 55.4 µM).

On to `Cc1nn2c(COCc3cn(CC(=O)O)nn3)c(-c3ccc(Cl)cc3)nc2s1`, for which, in series [1], the MIC is 50 mg/L (≈ 119 µM).

In series [1], `CC[C@@H](CO)NCCN[C@@H](CC)CO` [ETHAMBUTOL] returned an MIC of 3.12 mg/L (≈ 15.3 µM).

In series [1], `NNC(=O)c1ccncc1` [ISONIAZID] came in with an MIC of 0.1 mg/L (≈ 0.729 µM).

With `NC(=O)c1cnccn1` [PYRAZINAMIDE], 50 mg/L (≈ 406 µM) was the least that counted as inhibitory in series [1] (MIC).
